How the values were obtained:
[1] = target: T1, Bcl-xL/Bim heterodimer in Bcl-xL expressing ATH66 cells (Homo sapiens, UniProt Q07817); test: Flow cytometry HSBXB/Bcl-xL signal after BH3 mimetic treatment; type: cell-based
T1 construct: endogenous in cells; host or cells: ATH66 cells
Source text: FIG. 8 consists of two graphs that show how the Bcl-xL selective BH3 mimetic (A1155463) shifts the HSBXB heterodimer signal detected in cancer cells. For each series, the left bar is HSBXB signal and the right bar is total Bcl-xL. […] The term “I/C” on the x-axis of the graph refers to “isotype control.” and the term “CC” on the x-axis of the graph refers to the non-stained or “clean control.” The signal was detected using Flow Cytometry.
In these experiments, Bcl-xL expressing ATH66 cells were treated with the compound for 16 hours, then fixed with paraformaldehyde, permeabilized with non-ionic detergent and stained with HSBXB-FITC and with anti-Bcl-xL-Rhodamine. The signals were resolved using flow cytometry. The ratio of the signals provided the Bcl-xL priming index.

SEV-Bcl-xL-Bim cells = test: Flow cytometry HSBXB/Bcl-xL signal ratio in SEV-Bcl-xL-Bim cells; type: cell-based, human; conditions: 2 hours semi-permeabilized or 16 hours intact cells, flow cytometry (FIG. 14)
Method: In FIG. 14A, human seminal endothelial vesicle cells overexpressing ectopic Bcl-xL and Bim (SEV-Bcl-xL-Bim[ref]) were treated with A-1155463 at the indicated concentrations for 2 hours in semi-permeabilized cells, fixed, and then […] HSBXB or Bcl-xL antibody corrected to IgG-2A isotype. The ratio of the signals (y-axis) were collected flow cytometry. In FIG. 14B, intact SEV-Bcl-xL/Bim cells were treated with A-1155463 for 16 hours, fixed and stained as in FIG. 14A. The ratio of HSBXB and Bcl-xL signal was calculated as a percentage as shown below: […]

BT-474 = test: Drug response (cell viability) in breast cancer cells; type: cell-based; conditions: BT-474 human breast cancer cells
Source text: (§1) FIG. 16A, and FIG. 16B are graphs showing drug response to A1331852 in breast cancer (BC) cells.
(§2) Drug response to the Bcl-xL inhibitor, A-1331852, or the MEK inhibitor, Selumetinib, was compared in two types of human breast cancer cells, HCC1937 and BT-474, as shown in FIG. 16A and FIG. 16B. […] Immunofluorescence (IF) stainings of the HSBXB antibody and the Bcl-XL inhibitor, A-1331852, are shown in FIG. 17 in untreated human breast cancer cells, HCC1937 and BT-474. IF stainings and relative signal intensity were obtained from human breast cancer cells, HCC1937, treated with or without the A-1331852 inhibitor, or treated with or without the HSBXB antibody, as shown in FIG. 18.

HCC1937 = test: as above; type: cell-based; conditions: HCC1937 human breast cancer cells
Source text: as §1, §2

HCC1937 cells = test: Immunofluorescence localization of Bcl-xL and HSBXB; type: cell-based, human; conditions: IF (FIG. 19)
Method: A quantitative analysis was performed using the software Zen 2011 (Blue edition, Carl Zeiss). For each panel, the bar at the far left is Mito-BCL-XL, the next bar is Mito-HSBXB, the next bar is Bcl-XL-HSBXB, the next bar is Bcl-XL-DAPI, and the bar on the far right is HSBXB-DAPI. […] Immunofluorescence (IF) stainings of the HSBXB antibody and the Bcl-XL inhibitor, A-1331852, are shown in FIG. 17 in untreated human breast cancer cells, HCC1937 and BT-474. IF stainings and relative signal intensity were obtained from human breast cancer cells, HCC1937, treated with or without the A-1331852 inhibitor, or treated with or without the HSBXB antibody, as shown in FIG. 18.

[2] = target: T2, Bcl-xL-GST/Bim BH3 heterodimer (Homo sapiens, UniProt Q07817); test: ELISA, inhibition of HSBXB signal on non-covalent Bcl-xL-GST/Bim BH3 heterodimer; type: binding; conditions: heterodimers formed with peptide comprising the BH3 domain of Bim; compound added after peptides, before antibody
T2 construct: cloned and mutated to delete their transmembrane domains; made in house; host or cells: E. coli BL21
Method: (§3) To further characterize HSBXB, the antibody was assessed under conditions where Bcl-xL/Bim binding, mediated by the BH3 domain of Bim, was inhibited. […] In the experiment shown in FIG. 13A, Bcl-xL-GST was bound to glutathione-coated ELISA plates. Bim-BH3 peptide was then added, or not added as a control, and HSBXB antibody was used to detect complex formation. […] Non-covalent Bcl-xL-GST/Bim BH3 heterodimer was bound to glutathione-coated ELISA plates and treated with ABT-263. ABT-263 was then added to the ELISA plates after addition of peptides and before adding the monoclonal antibody.

[3] = target: T3, Bcl-xL-GST/Full length BIM protein (Homo sapiens, UniProt Q07817); test: ELISA, inhibition of HSBXB signal on Bcl-xL-GST/full length BIM heterodimer; type: binding; conditions: heterodimers formed with full length Bim protein
T3 construct: cloned and mutated to delete their transmembrane domains; made in house; host or cells: E. coli BL21
T3 sequence (Q07817 1-209 limits assumed): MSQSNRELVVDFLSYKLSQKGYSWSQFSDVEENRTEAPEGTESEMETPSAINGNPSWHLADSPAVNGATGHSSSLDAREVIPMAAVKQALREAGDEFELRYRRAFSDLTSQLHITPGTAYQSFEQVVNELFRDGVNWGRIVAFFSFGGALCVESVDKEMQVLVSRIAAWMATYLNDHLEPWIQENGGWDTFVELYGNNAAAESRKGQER
Method: The compound was added to the ELISA plates after addition of peptides and before adding the monoclonal antibody.
as §3

T1 sequence (Q07817 whole entry, species assumed, one chain of several): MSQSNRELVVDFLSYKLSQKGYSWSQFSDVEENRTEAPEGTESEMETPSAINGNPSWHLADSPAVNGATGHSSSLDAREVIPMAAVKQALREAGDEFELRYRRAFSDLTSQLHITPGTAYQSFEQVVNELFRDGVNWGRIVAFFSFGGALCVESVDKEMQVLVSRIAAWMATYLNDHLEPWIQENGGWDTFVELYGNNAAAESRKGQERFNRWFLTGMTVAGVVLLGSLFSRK
T2 sequence (Q07817 1-209 limits assumed, one chain of several): as the sequence (Q07817 1-209 limits assumed) above

**Q.** Which results are given for CN(C)CC#Cc1ccc(OCCCc2sc(N3CCc4cccc(C(=O)Nc5nc6ccccc6s5)c4C3)nc2C(=O)O)c(F)c1 [A-1155463]?
**A.** Bcl-xL priming index (ratio of HSBXB-FITC and anti-Bcl-xL-Rhodamine signals) ([1]; ATH66 cells treated for 16 hours, flow cytometry): diminish over a time course that coincided with the occurrence of apoptosis; HSBXB heterodimer signal ([1]; sub-lethal dose, 16 hours, flow cytometry (FIG. 8)): lose signal after 16 hours; HSBXB signal (ratio of HSBXB and Bcl-xL signal) (SEV-Bcl-xL-Bim cells): HSBXB signal shifts

**Q.** Cc1c(-c2ccc(N3CCc4cccc(C(=O)Nc5nc6ccccc6s5)c4C3)nc2C(=O)O)cnn1CC12CC3CC(CC(C3)C1)C2 [A-1331852] was tested. Which cell viability (BT-474) did it give?
**A.** decrease in cell viability

**Q.** What about the cell viability (HCC1937) of the same compound?
**A.** decrease in cell viability

**Q.** What about the “localization of Bcl-xL and HSBXB” value (HCC1937 cells) of the same compound?
**A.** Changes in the localization of Bcl-xL and HSBXB

**Q.** For CC1(C)CCC(c2ccc(Cl)cc2)=C(CN2CCN(c3ccc(C(=O)NS(=O)(=O)c4ccc(N[C@H](CCN5CCOCC5)CSc5ccccc5)c(S(=O)(=O)C(F)(F)F)c4)cc3)CC2)C1 [ABT-263], which “inhibition of heterodimer antibody (HSBXB) signal” value [2] is on record?
**A.** dose-dependent inhibition of heterodimer antibody signal

**Q.** And the “inhibition of heterodimer antibody (HSBXB) signal” value [3]?
**A.** dose-dependent inhibition of heterodimer antibody signal

Reference: patent US20200348280A1, “METHODS FOR PREDICTING CANCER DRUG RESPONSIVENESS” (Eutropics Pharmaceuticals, Inc., priority 2018, published 2020)
